Values joined by “and” are separate entries in the source; they are usually repeats but may differ in a detail not shown here. Equal values may be shown once. Read-outs that look alike come from different tables or passages of the source.
How the values were obtained:
[1] = system: arachidonic acid-induced ear edema; conditions: mouse ear; cited from earlier work
5-lipoxygenase (5-LO) = molecular target: T1, 5-lipoxygenase (5-LO) (Homo sapiens, UniProt P09917); conditions: in vitro assays; cited from earlier work
T1 sequence (P09917 1-674): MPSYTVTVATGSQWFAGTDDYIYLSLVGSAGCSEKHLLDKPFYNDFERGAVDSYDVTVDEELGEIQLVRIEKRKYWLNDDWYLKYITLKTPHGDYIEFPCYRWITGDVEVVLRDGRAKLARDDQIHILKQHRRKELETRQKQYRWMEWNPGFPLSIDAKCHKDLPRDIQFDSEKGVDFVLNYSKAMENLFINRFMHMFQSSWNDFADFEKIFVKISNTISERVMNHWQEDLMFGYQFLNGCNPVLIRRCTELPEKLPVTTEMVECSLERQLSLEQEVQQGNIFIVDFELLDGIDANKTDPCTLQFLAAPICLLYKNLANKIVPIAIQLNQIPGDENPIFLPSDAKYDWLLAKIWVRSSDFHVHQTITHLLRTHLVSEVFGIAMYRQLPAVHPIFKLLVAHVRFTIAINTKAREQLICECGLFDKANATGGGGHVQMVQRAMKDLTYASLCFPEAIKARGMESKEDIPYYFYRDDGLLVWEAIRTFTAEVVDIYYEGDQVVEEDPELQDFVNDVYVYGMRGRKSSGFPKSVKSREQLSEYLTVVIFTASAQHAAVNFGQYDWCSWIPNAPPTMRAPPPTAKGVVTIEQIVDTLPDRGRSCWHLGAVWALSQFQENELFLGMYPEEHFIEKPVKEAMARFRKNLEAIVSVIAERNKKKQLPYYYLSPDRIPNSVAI

carrageenin foot edema = conditions: rats, oral route, doses up to 200 mg/kg; cited from earlier work
human skin = test: Safety and adverse events at application sites in the pilot clinical study; assay type: in vivo; conditions: topical twice daily, any time point during the study
Experimental: Lower back of each subject was used as the test area. Five identically sized application sites (square 3 cm by 3 cm) were marked on the skin of each subject and labeled A through E. 0.1 gram of each material, as measured by extrusion from a syringe, was applied on the appropriate site, using a gloved finger, by a trained technician, guided by markings on the skin and the application site diagram. The application was carried out in an accredited outpatient facility twice daily (morning and afternoon/evening), 6 days per week (with no treatments on Sunday). The procedure was continued in the same manner for the duration of the study. Subjects 2, 3 and 4 entered the study on day 1 (Friday) and each received 48 treatments (no subject missed any of the treatments). Subjects 8, 9, and 10 entered the study on day 4 (Monday) and each received 44 treatments. No subject missed any of the treatments.
In all cases, the condition of the sites treated with Formulation E improved upon termination of the treatment.

[2] = humans, preliminary data; cited from earlier work
[3] = molecular target: prostaglandin synthetase (PGS); conditions: in vitro assays; cited from earlier work
[4] = system: PGS in intact RBL-1 cells; conditions: cited from earlier work
[5] = system: immune-complex-induced peritoneal inflammation; conditions: mouse, intraperitoneal, fine suspension in saline; cited from earlier work
rabbit skin edema = conditions: co-injected with arachidonic acid; cited from earlier work
[6] = cited from earlier work
[7] = system: darker human skin (pigmentation); test: Single-blind pilot clinical study of skin lightening on darker human skin; assay type: in vivo; conditions: day 29 / end of study, significance at p<0.05
Experimental: The study protocol and informed consent form were reviewed and approved by the Guangzhou Institutional Review Board (Guangzhou, China) prior to the initiation of the study. […]
The following test formulations were prepared and pH of each formulation was measured, as shown below. […]
Lower back of each subject was used as the test area. Five identically sized application sites (square 3 cm by 3 cm) were marked on the skin of each subject and labeled A through E. 0.1 gram of each material, as measured by extrusion from a syringe, was applied on the appropriate site, using a gloved finger, by a trained technician, guided by markings on the skin and the application site diagram. […]
L value (brightness) reading was taken in duplicate with the spectrophotometer CM-2600d (Konica Minolta, Osaka, Japan). The melanin (M) index reading was taken in duplicate with a Mexameter® MX18 (Courage & Khazaka, Cologne, Germany). […]
Statistical analysis was performed using the computer program SigmaStat 11 (Systat Software Inc., Chicago, Ill., USA) on a Microsoft Windows computer. For all data (Visual Scoring (VS), L value (brightness) (L), and MeIanin Index (M)), the baseline readings were subtracted prior to analysis. […]

[8] = system: UV irradiation-induced erythema; conditions: guinea pig; cited from earlier work
[9] = molecular target: T2, Kit autophosphorylation in M07e cells (Homo sapiens, UniProt P10721); test: Cellular Kit phosphorylation assay (ProQinase sandwich ELISA) in M07e cells; assay type: cell-based
T2 construct: expressing endogenously a high level of wild-type Kit; host or cells: M07e (human acute megakaryoblastic leukemia)
Experimental: The human acute megakaryoblastic leukemia cell line M07e expressing endogenously a high level of wild-type Kit was used in the cellular Kit phosphorylation assay. Stimulation of these cells with human Kit ligand results in receptor tyrosine autophosphorylation. M07e cells were plated in RPMI supplemented with 20% FCS and 10 ng/ml GM-CSF in multiwell cell culture plates. After serum- and growth factor-starvation overnight, cells were incubated with test compounds in serum-free medium. Pre-diluted test samples were added 1:100 to the cell culture medium resulting in a final DMSO concentration of 1%. After 90 minute incubation at 37° C., cells were stimulated with 100 ng/ml Kit ligand for 3 minutes. Cells treated with staurosporine were defined as Low control, and cells treated with solvent alone were defined as High control. Test sample-treated cells, as well as High and Low control, were stimulated in identical manner. Quantification of substrate phosphorylation was assessed in 96 well plates via sandwich ELISA using a substrate specific capture antibody and an anti-phosphotyrosine detection antibody. Raw data were converted into percent substrate phosphorylation relative to High control, set to 100%. […] The equation is a four-parameter logistic equation.

Kit (human) = molecular target: T3, Kit (human) (Homo sapiens, UniProt P10721); test: Millipore KinaseProfiler radiometric-based filtration binding assay of Kit kinase; conditions: biochemical assay, read-out: IC50 of Kit kinase inhibition (converted)
T3 construct: purchased EMD Millipore Corporation (KinaseProfiler service)
Experimental: To characterize the inhibitory activity of FPL-62064 against Kit kinase, the drug was tested using Millipore KinaseProfiler radiometric-based filtration binding assay (EMD Millipore Corporation, Billerica, Mass.). In a final reaction volume of 25 μL, Kit (human) (5-10 mU) was incubated with 8 mM MOPS pH 7.0, 0.2 mM EDTA, 10 mM MnCl2, 0.1 mg/mL poly(Glu, Tyr) 4:1, 10 mM MgAcetate and 10 μM [γ^33P-ATP] (specific activity approx. 500 cpm/pmol). The reaction was initiated by the addition of the MgATP mix. After incubation for 40 minutes at room temperature, the reaction was stopped by the addition of 5 μL of a 3% phosphoric acid solution. 10 μL of the reaction was then spotted onto a Filtermat A and washed three times for 5 minutes in 75 mM phosphoric acid and once in methanol prior to drying and scintillation counting.

[10] = molecular target: T4, 5-LO in intact RBL-1 cells (Rattus norvegicus, UniProt P12527); conditions: cited from earlier work
T4 construct: endogenous in cells; host or cells: RBL-1 cells
T4 sequence (P12527 1-673): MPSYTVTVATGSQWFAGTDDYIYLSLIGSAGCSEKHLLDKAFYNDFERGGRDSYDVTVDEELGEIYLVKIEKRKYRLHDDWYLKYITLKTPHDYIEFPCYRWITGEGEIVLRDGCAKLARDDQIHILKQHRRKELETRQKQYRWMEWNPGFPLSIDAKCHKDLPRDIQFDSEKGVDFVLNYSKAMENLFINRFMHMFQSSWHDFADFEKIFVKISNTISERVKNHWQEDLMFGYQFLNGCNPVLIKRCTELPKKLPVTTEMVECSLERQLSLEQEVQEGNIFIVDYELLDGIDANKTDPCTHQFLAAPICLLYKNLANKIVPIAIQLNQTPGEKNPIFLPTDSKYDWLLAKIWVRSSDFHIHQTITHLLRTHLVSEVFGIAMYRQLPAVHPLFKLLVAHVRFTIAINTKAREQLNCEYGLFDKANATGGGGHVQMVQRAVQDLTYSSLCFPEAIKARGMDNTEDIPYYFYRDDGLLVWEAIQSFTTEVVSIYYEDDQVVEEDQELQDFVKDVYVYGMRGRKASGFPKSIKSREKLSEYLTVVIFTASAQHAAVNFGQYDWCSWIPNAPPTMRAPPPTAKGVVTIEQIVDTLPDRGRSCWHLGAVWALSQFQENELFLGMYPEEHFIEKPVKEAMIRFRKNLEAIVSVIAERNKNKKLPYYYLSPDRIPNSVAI

T3 sequence (P10721 26-976): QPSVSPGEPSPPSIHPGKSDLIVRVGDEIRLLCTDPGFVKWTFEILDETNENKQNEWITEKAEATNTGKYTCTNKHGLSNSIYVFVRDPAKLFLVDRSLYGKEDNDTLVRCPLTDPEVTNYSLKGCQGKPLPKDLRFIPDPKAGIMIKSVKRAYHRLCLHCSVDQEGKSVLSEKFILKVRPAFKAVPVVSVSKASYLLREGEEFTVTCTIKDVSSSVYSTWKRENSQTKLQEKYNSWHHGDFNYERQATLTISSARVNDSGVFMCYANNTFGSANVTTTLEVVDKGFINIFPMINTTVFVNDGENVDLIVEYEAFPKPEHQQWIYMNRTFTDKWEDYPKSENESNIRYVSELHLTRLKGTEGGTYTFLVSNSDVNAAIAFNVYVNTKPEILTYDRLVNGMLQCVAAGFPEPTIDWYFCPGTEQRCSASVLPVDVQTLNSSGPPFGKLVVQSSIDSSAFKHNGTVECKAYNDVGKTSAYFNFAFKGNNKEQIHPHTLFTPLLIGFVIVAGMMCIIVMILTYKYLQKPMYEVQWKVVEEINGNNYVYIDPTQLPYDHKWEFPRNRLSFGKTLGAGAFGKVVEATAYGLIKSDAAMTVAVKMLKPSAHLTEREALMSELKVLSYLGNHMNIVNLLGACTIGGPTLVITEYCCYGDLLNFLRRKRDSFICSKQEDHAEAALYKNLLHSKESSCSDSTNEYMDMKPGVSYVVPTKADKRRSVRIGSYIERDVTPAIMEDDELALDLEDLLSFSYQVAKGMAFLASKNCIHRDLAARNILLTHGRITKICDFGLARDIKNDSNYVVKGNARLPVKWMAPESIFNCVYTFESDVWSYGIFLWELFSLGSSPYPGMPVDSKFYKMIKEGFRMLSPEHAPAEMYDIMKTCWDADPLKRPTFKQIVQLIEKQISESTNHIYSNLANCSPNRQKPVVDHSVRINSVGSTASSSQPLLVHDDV
T2 sequence (P10721 26-976): as above
T2 sequence (P21583 26-190 partner limits assumed): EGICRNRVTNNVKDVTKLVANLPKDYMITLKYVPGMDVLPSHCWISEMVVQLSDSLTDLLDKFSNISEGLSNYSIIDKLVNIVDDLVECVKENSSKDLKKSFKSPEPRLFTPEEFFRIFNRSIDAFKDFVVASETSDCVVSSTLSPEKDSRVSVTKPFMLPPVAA

IC50 ([9]; 90 min incubation, 100 ng/ml Kit ligand): 1.2 µM
IC50 ([9]; same value in mass units): 1.13 µM
IC50 (Kit (human); 10 μM ATP): 6.9 µM and 6.89 µM
IC50 (Kit (human); same value in mass units): 7.54 µM
SMILES: COc1ccc(Nc2ccn(-c3ccccc3)n2)cc1 [FPL-62064, N-(4-methoxyphenyl)-1-phenyl-1H-pyrazol-3-amine]
edema formation and eicosanoid production induced by arachidonic acid [1]: inhibited
IC50 (5-lipoxygenase (5-LO)): 3.5 to 11.5 µM
activity against carrageenin foot edema (carrageenin foot edema): inactive
adverse events, sensitivity or irritation at treated sites (human skin): well tolerated
safety and tolerability of topical application [2]: safe and well tolerated
IC50 [3]: 3.1 µM
IC50 [4]: 3.6 µM
activity against immune-complex-induced peritoneal inflammation [5]: demonstrated local activity
edema and eicosanoid formation (rabbit skin edema): inhibited
topical bioavailability ([6]; topical): topically bioavailable
metabolism ([6]; upon intravenous administration): rapidly and extensively metabolized
change of the melanin index (M) from baseline compared to the control site (Formulation D, vehicle) [7]: statistically significant decrease
UV irradiation-induced erythema and prostaglandin E2 formation [8]: inhibited
IC50 [10]: 31 µM

Reference: patent publication US9161894B2, “Use of N-(4-methoxyphenyl)-1-phenyl-1H-pyrazol-3-amine and related compounds” (NPHARMAKON, LLC, priority 2011, dated 2015)
